Experimental data published in patent US8318898B2, “Synthetic peptides for use as inhibitors of neurotransmitter secretion and as inducers of cellular relaxation” (Universite de Lausanne, priority 2005, dated 2012).

Key:
PC-12 cells [1] = assay: Subcellular localization of FITC-labeled peptide and colocalization with furin, confocal microscopy; type: cell-based, rat; details: 1 and 100 μM
Text: Two peptides of interest were FITC-labeled (Anaspec) to follow their interiorization on PC-12 cells (rat pheochromocytoma cells): L-Bel1 (SEQ ID NO. 3) and D-9Rac/am (SEQ ID NO. 15). After observation of L-Bel1-FITC conjugate interiorization, a monoclonal antibody for furin endoprotease was used for colocalization studies by confocal microscopy analysis.
PC-12 cells were resuspended in Dulbecco's modified Eagle's medium (DMEM) high glucose (Gibco BRL, Life Technologies) containing 6% decomplemented horse serum, 6% decomplemented fetal bovine serum, supplemented with 25 U/ml penicillin-streptomycin-I-glutamine. Cells were seeded at 3×10^4 cells/well (200 μl), on 8-well microscope slide chamber (BD Biosciences), previously coated with collagen I (Roche Diagnostics) solution (0.0007%). After an overnight incubation at 37° C. in 5% CO2, cells were washed twice using fresh medium without serum, and then incubated in the presence or absence of the peptide, for the indicated time. […]
The fluorescent images were obtained by confocal laser scanning microscope (Zeiss LSM 510) with lasers of argon (488 nm), helium-neon 1 (543 nm), and enterprise (364 nm); connected to an inverted fluorescence microscope (Zeiss Axiovert 100 M), equipped with a 63×/1.4 PL APO chromate objective lens.

PC-12 cells [2] = assay: Actin cytoskeleton organization, phalloidin-TRITC staining; type: cell-based, rat
Protocol: Slides with PC-12 cells were prepared as stated previously for localization studies. Briefly, cells were exposed to FITC-labeled or unlabeled peptides, at various concentrations, for 30 minutes, fixed and then permeabilized. Subsequently, F-actin was fluorescently labeled with phalloidin-Tetramethyl Rhodamine Iso-Thiocyanate (TRITC) (Sigma Aldrich) conjugate, diluted on saponin buffer (0.25 μg/ml), and nuclear staining with DAPI dihydrochloride (Sigma Aldrich) (0.02 μg/ml), at room temperature for maximum 30 minutes. Finally, slides were mounted and sealed, and stored at 4° C. protected from light. The effect of the peptides to actin polymerization was analyzed by confocal microscopy, as described before.

`N=C(N)NCCC[C@H](NC(=O)CNC(=O)[C@H](Cc1ccc(O)cc1)NC(=O)CN)C(=O)N[C@@H](CCCCN)C(=O)N[C@@H](CCCCN)C(=O)N[C@@H](CCCNC(=N)N)C(=O)N[C@@H](CCCNC(=N)N)C(=O)N[C@@H](CCC(N)=O)C(=O)N[C@@H](CCCNC(=N)N)C(=O)N[C@@H](CCCNC(=N)N)C(=O)N[C@@H](CCCNC(=N)N)C(=O)NCC(=O)O` [L-Tat] was tested, and the “internalization of FITC-labeled peptide” value (PC-12 cells [1]) was “crosses the basal membrane”, the “effect on actin content and organization at higher concentration” value (PC-12 cells [2]; 100 μM) was “almost lost” and the “effect on actin content and organization” value (PC-12 cells [2]; 2 to 10 μM, 30 minutes, labeled or unlabeled) was “decreased actin content and organization”.
